Measurements from PubChem BioAssay (NCI).
“And” between values parts separate entries of the source, which are not always exact repeats. Equal entries are not always repeated.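 Tested at 5 concentrations; 48 h exposure; 96-well plates; endpoints linearly interpolated, else capped at highest concentration. GI50: concentration for 50% inhibition of growth. TGI: concentration producing complete growth inhibition.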

Tests used:
Experiment in all cases: inhibition of tumour cell growth, NCI panel, 48 h
A498 renal = system: A498 renal
U251 CNS = system: U251 CNS
EKVX NSCLC = system: EKVX NSCLC
RXF 393 renal = system: RXF 393 renal
UACC-257 melanoma = system: UACC-257 melanoma
SK-MEL-28 melanoma = system: SK-MEL-28 melanoma
HT29 colon = system: HT29 colon
SF-539 CNS = system: SF-539 CNS
HOP-92 NSCLC = system: HOP-92 NSCLC
SF-268 CNS = system: SF-268 CNS

Compound | GI50 (A498 renal) | TGI (A498 renal) | GI50 (U251 CNS) | TGI (U251 CNS) | GI50 (EKVX NSCLC) | TGI (EKVX NSCLC) | GI50 (RXF 393 renal) | TGI (RXF 393 renal) | GI50 (UACC-257 melanoma) | TGI (UACC-257 melanoma) | GI50 (SK-MEL-28 melanoma) | TGI (SK-MEL-28 melanoma) | GI50 (HT29 colon) | TGI (HT29 colon) | GI50 (SF-539 CNS) | TGI (SF-539 CNS) | GI50 (HOP-92 NSCLC) | TGI (HOP-92 NSCLC) | GI50 (SF-268 CNS) | TGI (SF-268 CNS)
CNC(=O)c1cc2c(Oc3ccc(NC(=O)C4(C(=O)Nc5ccc(F)cc5)CC4)cc3)ccnc2cc1OC | 1.28 µM | 3.27 µM | 3.51 µM | > 100 µM | 3.39 µM | > 100 µM | 1.58 µM | 3.53 µM | 3.12 µM | > 100 µM | 3.68 µM | > 100 µM | 2.42 µM | > 100 µM | 0.463 µM | 6.56 µM | 1.03 µM | 4.75 µM | 3.06 µM | > 100 µM
Cc1nc(Nc2n[nH]c3c2CN(C(=O)N[C@H](CN(C)C)c2ccccc2)C3(C)C)c2sccc2n1 | – | 1.85 µM and 3.25 µM | 0.0242 µM and 0.0325 µM | > 7.15 µM and 8.11 µM | 0.0907 µM and 0.14 µM | > 8.27 µM and 23.6 µM | 0.143 µM and 0.751 µM | 1.89 µM and 2.53 µM | < 0.0106 µM | 1.27 µM and 4.34 µM | 0.013 µM and < 0.01 µM | 1.12 µM and 4.31 µM | 0.0238 µM and 0.0313 µM | 2.75 µM and 5.59 µM | 0.382 µM and 0.149 µM | 3.68 µM and 2.98 µM | – | 2.7 µM and 0.47 µM | 0.177 µM and 0.427 µM | > 4.61 µM and 5.23 µM
CC/C(=N\NS(=O)(=O)c1ccccc1)c1ccccc1 | – | > 100 µM | – | > 100 µM | – | > 100 µM | – | > 100 µM | – | > 100 µM | – | > 100 µM | – | > 100 µM | – | > 100 µM | – | > 100 µM | – | > 100 µM
C[n+]1c2ccccc2cc2c(CNC(CCCN=C(N)N)C(=O)O)cccc21 (stereo not given) | – | 8.7 µM | 2.12 µM | 4.28 µM and 6.85 µM | 2.68 µM | 10.2 µM | 2.22 µM | 1.34 µM and 4.78 µM | 1.98 µM | 3.9 µM | – | 3.65 µM | 0.339 µM | 1.14 µM and 5.85 µM | – | 2.66 µM and 2.91 µM | 0.327 µM | 0.991 µM | 0.394 µM | 0.846 µM and 1.47 µM
O=S1(=O)NCCCN1CCNc1nccc(-c2c(-c3cccc(O)c3)nc3sccn23)n1 | 15.5 µM | 45.9 µM | 21.6 µM | > 100 µM | 61.3 µM | > 100 µM | 5.17 µM | 38.4 µM | 2.99 µM | > 100 µM | 0.245 µM | > 100 µM | 7.65 µM | > 100 µM | 33.5 µM | > 100 µM | 27.3 µM | > 93.5 µM | 24.4 µM | > 100 µM
CCN(CC)CCNC(=O)c1c(C)[nH]c(/C=C2\C(=O)Nc3ccc(F)cc32)c1C | > 10 µM and 2.21 µM and 2.84 µM | > 10 µM and 4.83 µM and 15.4 µM | 5.33 µM and 3.06 µM and 2.25 µM | > 10 µM and 6.34 µM and 7.54 µM | > 10 µM and 5.27 µM and 8.38 µM | > 10 µM and 20 µM and 21.9 µM | 1.19 µM and 1.45 µM and 1.38 µM | 8.47 µM and 4.56 µM and 4.37 µM | > 10 µM and 2.49 µM and 3.24 µM | > 10 µM and 5.21 µM and 8.69 µM | 2.47 µM and 3 µM and 1.57 µM | > 10 µM and 5.89 µM and 3.31 µM | 1.07 µM and 1.3 µM and 1.54 µM | 5.21 µM and 4.99 µM and 3.69 µM | 1.38 µM and 2.36 µM and 1.21 µM | 6.7 µM and 5.41 µM and 2.72 µM | 0.831 µM and 0.439 µM | 9.01 µM and 3.05 µM | > 10 µM and 2.73 µM and 4.57 µM | > 10 µM and 6.09 µM and 16.9 µM
CC(=O)[CH-]C(C)=O.[CH2-]C.[CH2-]C.[Tl+3] | > 100 µM | > 100 µM | > 100 µM | > 100 µM | > 100 µM | > 100 µM | > 100 µM | > 100 µM | > 100 µM | > 100 µM | > 100 µM | > 100 µM | > 100 µM | > 100 µM | > 100 µM | > 100 µM | > 100 µM | > 100 µM | > 100 µM | > 100 µM
C=CCSc1nc2ccccc2c(=O)n1Cc1ccco1 | – | > 100 µM | – | > 100 µM | – | > 100 µM | – | > 100 µM | – | > 100 µM | – | > 100 µM | – | > 100 µM | – | > 100 µM | – | > 100 µM | – | > 100 µM
O=S(=O)(CCOCc1ccc(-c2ccc3ncnc(Nc4ccc(OCc5cccc(F)c5)c(Cl)c4)c3c2)o1)c1ccccc1 | > 7 µM | > 25 µM | > 25 µM | > 25 µM | 0.754 µM | > 25 µM | > 25 µM | > 25 µM | > 25 µM | > 25 µM | > 25 µM | > 25 µM | > 25 µM | > 25 µM | > 25 µM | > 25 µM | > 25 µM | > 25 µM | > 25 µM | > 25 µM
CC(=O)[O-].CC(=O)[O-].CC(=O)[O-].CC(=O)[O-].[Mo+2].[Mo+2] | > 100 µM | > 100 µM | > 100 µM | > 100 µM | > 100 µM | > 100 µM | > 100 µM | > 100 µM | > 100 µM | > 100 µM | > 100 µM | > 100 µM | > 100 µM | > 100 µM | > 100 µM | > 100 µM | 39.9 µM | > 100 µM | > 100 µM | > 100 µM
CC1(C)OC2COC3(CNO)OC(C)(C)OC3C2O1 (stereo not given) | – | > 100 µM | – | > 100 µM | – | > 100 µM | – | > 100 µM | – | > 100 µM | – | > 100 µM | – | > 100 µM | – | > 100 µM | – | > 100 µM | – | > 100 µM
CCC(=C(c1ccc(OCCCN(C)C)cc1)c1ccc(OCCCN(C)C)cc1)c1ccc(Cl)cc1 | 1.7 µM | 4.39 µM | 0.419 µM | 1.1 µM | 2.43 µM | 4.9 µM | 0.977 µM | 3.4 µM | 0.883 µM | 2.24 µM | 0.324 µM | 0.652 µM | 0.395 µM | 0.966 µM | 0.301 µM | 0.604 µM | 0.945 µM | 3.42 µM | 1.04 µM | 2.72 µM
COCCOCCOCc1n(Cc2ccc3ccccc3n2)c2ccccc2[n+]1Cc1ccc2ccccc2c1 | 0.627 µM | 2.83 µM | 0.328 µM | 1.26 µM | 1.27 µM | 10.8 µM | 1.68 µM | 4.46 µM | 0.293 µM | 0.877 µM | 0.484 µM | 1.88 µM | 0.292 µM | 1.43 µM | 0.338 µM | 1.4 µM | 0.207 µM | 0.718 µM | 0.464 µM | 1.85 µM
C=CCC1[C@@H](C(C)(C)C(C(C)=O)C(=O)C(=O)OC)OC(C(C)(C)C)N1C(=O)OC (stereo not given in full) | – | > 100 µM | – | > 100 µM | – | > 100 µM | – | > 100 µM | – | > 100 µM | – | > 100 µM | – | > 100 µM | – | > 100 µM | – | > 100 µM | – | > 100 µM
O=C/C(=C(/Cl)c1ccc(O)cc1)c1ccccc1 | – | > 100 µM | – | > 56.5 µM | – | > 75.7 µM | – | 57.2 µM | – | > 56.6 µM | – | 41.9 µM | – | > 62.7 µM | – | > 57.1 µM | – | 50.7 µM | – | 77.8 µM
O=C(c1ccc2ccccc2c1)c1c(C(F)(F)F)n([O-])c2ccc(Cl)cc2[n+]1=O | 1.72 µM | 3.11 µM | 1.67 µM | 3.03 µM | 1.74 µM | 3.17 µM | 0.425 µM | 1.4 µM | 1.68 µM | 3.13 µM | 1.63 µM | 3.02 µM | 1.52 µM | 2.93 µM | 1.58 µM | 2.92 µM | 0.518 µM | 2.03 µM | 1.04 µM | 2.33 µM
